# Patent US20230279020A9, “CARM1 INHIBITORS AND USES THEREOF” (Epizyme, Inc., priority 2013, published 2023)
# Molecular target: Human CARM1 (PRMT4) (Homo sapiens (Human), UniProt Q86X55)
# Test: CARM1 enzyme assay on peptide substrate (3H-SAM Flashplate)
# Settings: Biochemical potencies, classification codes; read-out: Biochem IC50
# Human CARM1 (PRMT4), sequence (Q86X55 other isoform, or with tags, fused parts or gaps isoform Q86X55-1): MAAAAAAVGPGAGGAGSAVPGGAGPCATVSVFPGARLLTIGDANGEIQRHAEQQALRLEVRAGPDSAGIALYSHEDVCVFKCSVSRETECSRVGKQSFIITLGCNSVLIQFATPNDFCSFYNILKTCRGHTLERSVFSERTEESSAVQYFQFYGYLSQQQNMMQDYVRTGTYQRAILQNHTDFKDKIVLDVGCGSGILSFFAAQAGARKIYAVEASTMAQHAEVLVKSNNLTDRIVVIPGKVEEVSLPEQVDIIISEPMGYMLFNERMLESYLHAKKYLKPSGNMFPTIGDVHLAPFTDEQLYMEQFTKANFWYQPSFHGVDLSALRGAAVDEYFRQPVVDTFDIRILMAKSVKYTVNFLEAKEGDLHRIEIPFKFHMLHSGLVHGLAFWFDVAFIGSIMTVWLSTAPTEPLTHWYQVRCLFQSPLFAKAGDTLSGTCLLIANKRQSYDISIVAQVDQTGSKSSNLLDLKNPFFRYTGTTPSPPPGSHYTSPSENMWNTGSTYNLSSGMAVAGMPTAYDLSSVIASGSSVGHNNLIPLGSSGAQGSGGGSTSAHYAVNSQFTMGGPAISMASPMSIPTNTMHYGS
row,SMILES,IC50 [nM]
1,CNC[C@@H](O)COc1ccc(C(F)(F)F)c(-c2nc(NC3CCN(C(=O)OC)CC3)c(C)c(-c3c(C)noc3C)n2)c1 [Example 204-3],< 100
2,CNCC(O)COc1cccc(-c2nc(NCC3CCN(CC(F)F)CC3)c(C)c(-c3c(C)noc3C)n2)c1 (stereo not drawn) [Example 205-1a],< 100
3,CNC[C@@H](O)COc1ccc(Cl)c(-c2nc(-c3c(C)noc3C)c(C)c(C3CC3)n2)c1 [Example 205-3],< 100
4,CCOC(=O)N1CCOC[C@@H]1CNc1nc(-c2cccc(OCC(O)CNC)c2)nc(-c2c(C)noc2C)c1C (stereo partly drawn) [Example 206-1a],< 100
5,CNC[C@@H](O)COc1ccc(Cl)c(-c2nc(-c3c(C)noc3C)c(C)c(N3CC(F)C3)n2)c1 [Example 206-3],< 100
6,CNCC(O)COc1cccc(-c2nc(NC3CCNC[C@H]3F)c(C)c(-c3c(C)noc3C)n2)c1 (stereo partly drawn) [Example 207-1a],< 100
7,CNC[C@@H](O)COc1ccc(Cl)c(-c2nc(-c3c(C)noc3C)c(C)c(N3CCC3C)n2)c1 (stereo partly drawn) [Example 207-3],< 100
8,CNCC(O)COc1cccc(-c2nc(NC3CCN(C(=O)OC(C)(C)C)C[C@H]3F)c(C)c(-c3c(C)noc3C)n2)c1 (stereo partly drawn) [Example 208-1a],< 100
9,CNC[C@@H](O)COc1ccc(Cl)c(-c2nc(N[C@H]3CCN(C)C[C@H]3F)c(Cl)c(-c3c(C)noc3C)n2)c1 [Example 208-3],< 100
10,CNCC(O)COc1cccc(-c2nc(-c3c(C)noc3C)c(C)c(N3CCO[C@@H](C)C3)n2)c1 (stereo partly drawn) [Example 209-1a],< 100
11,CNC[C@@H](O)COc1ccc(Cl)c(-c2nc(N[C@H]3COC[C@@H]3O)c(C)c(-c3c(C)noc3C)n2)c1 [Example 209-3],< 100
12,CNCC(O)COc1cccc(-c2nc(Nc3cn(C)cn3)c(C)c(-c3c(C)noc3C)n2)c1 (stereo not drawn) [Example 210-1a],< 100
13,CNC[C@@H](O)COc1ccc(Cl)c(-c2nc(N[C@@H]3CCN(C)C[C@@H]3F)c(Cl)c(-c3c(C)noc3C)n2)c1 [Example 210-3],< 100
14,CNCC(O)COc1cccc(-c2nc(-c3c(C)noc3C)c(C)c(N3CCO[C@H](C)C3)n2)c1 (stereo partly drawn) [Example 211-1a],< 100
15,CNC[C@@H](O)COc1ccc(Cl)c(-c2nc(N[C@@H]3CCN(C4CC4)C[C@@H]3F)c(Cl)c(-c3c(C)noc3C)n2)c1 [Example 211-3],< 100
16,CNCC(O)COc1cccc(-c2nc(NC3C4COCC43)c(C)c(-c3c(C)noc3C)n2)c1 (stereo not drawn) [Example 212-1a],< 100
17,CNC[C@@H](O)COc1ccc(Cl)c(-c2nc(N[C@H]3CC[C@@H](OC)C3)c(C)c(-c3c(C)noc3C)n2)c1 [Example 212-3],< 100
18,CNC[C@@H](O)COc1ccc(Cl)c(-c2nc(-c3c(C)noc3C)c(C)c(N(C)[C@H]3CC[C@@H](OC)C3)n2)c1 [Example 213-3],< 100
19,CNC[C@@H](O)COc1ccc(Cl)c(-c2nc(-c3c(C)noc3C)c(Cl)c(N3Cc4ccncc4C3)n2)c1 [Example 214-3],< 100
20,CNCC(O)COc1cccc(-c2nc(Nc3nncs3)c(C)c(-c3c(C)noc3C)n2)c1 (stereo not drawn) [Example 215-1a],< 100
21,CNC[C@@H](O)COc1ccc(Cl)c(-c2nc(NC[C@H]3CCCO3)c(Cl)c(-c3c(C)noc3C)n2)c1 [Example 215-3],< 100
22,CNCC(O)COc1cccc(-c2nc(NC3CCCN(C(=O)N(C)C)C3)c(C)c(-c3c(C)noc3C)n2)c1 (stereo not drawn) [Example 216-1a],< 100

row,SMILES,IC50 [nM]
1,CNC[C@@H](O)COc1ccc(Cl)c(-c2nc(N[C@H]3C[C@@H](OC)C3)c(Cl)c(-c3c(C)noc3C)n2)c1 [Example 216-3],< 100
2,CNCC(O)COc1cccc(-c2nc(Nc3nnc(C4CC4)s3)c(C)c(-c3c(C)noc3C)n2)c1 (stereo not drawn) [Example 217-1a],< 100
3,CNC[C@@H](O)COc1ccc(Cl)c(-c2nc(N[C@H]3C[C@H](OC)C3)c(Cl)c(-c3c(C)noc3C)n2)c1 [Example 217-3],< 100
4,CNCC(O)COc1cccc(-c2nc(N[C@H]3CCC[C@H]3O)c(C)c(-c3c(C)noc3C)n2)c1 (stereo partly drawn) [Example 218-1a],< 100
5,CNCC(O)COc1ccc(Cl)c(-c2nc(NC3CC4(CC4)C3)c(C)c(-c3c(C)noc3C)n2)c1 (stereo not drawn) [Example 218-3],< 100
6,CNCC(O)COc1cccc(-c2nc(NC3CCC[C@H]3O)c(C)c(-c3c(C)noc3C)n2)c1 (stereo partly drawn) [Example 219-1a],< 100
7,CNC[C@@H](O)COc1ccc(Cl)c(-c2nc(NC3CC(COC)C3)c(C)c(-c3c(C)noc3C)n2)c1 (stereo partly drawn) [Example 219-3],< 100
8,CNCC(O)COc1cccc(-c2nc(N[C@@H]3CCOC[C@@H]3OC)c(C)c(-c3c(C)noc3C)n2)c1 (stereo partly drawn) [Example 220-1a],< 100
9,CNC[C@@H](O)COc1ccc(Cl)c(-c2nc(-c3c(C)noc3C)c(C)c(N(C)C3CC(COC)C3)n2)c1 (stereo partly drawn) [Example 220-3],< 100
10,CNCC(O)COc1cccc(-c2nc(N[C@H]3C[C@H](C(=O)OC)C3)c(C)c(-c3c(C)noc3C)n2)c1 (stereo partly drawn) [Example 221-1a],< 100
11,CCOC(=O)N1CCC[C@H]1CCOc1nc(-c2cc(OC[C@H](O)CNC)ccc2Cl)nc(-c2c(C)noc2C)c1C [Example 221-3],< 100
12,CCO[C@H]1CCC[C@@H]1Nc1nc(-c2cc(OC[C@H](O)CNC)ccc2Cl)nc(-c2c(C)noc2C)c1C [Example 222-3],< 100
13,CNC[C@@H](O)COc1ccc(F)c(-c2nc(-c3c(C)noc3C)c(C)c(N3Cc4cnn(C)c4C3)n2)c1 [Example 223-3],< 100
14,CNCC(O)COc1cccc(-c2nc(N[C@@H]3CCNC[C@@H]3F)c(C)c(-c3c(C)noc3C)n2)c1 (stereo partly drawn) [Example 224-1a],< 100
15,CNC[C@@H](O)COc1ccc(Cl)c(-c2nc(-c3c(C)noc3C)c(C)c(N3Cc4[nH]nc(C)c4C3)n2)c1 [Example 224-3],< 100
16,CNCC(O)COc1cccc(-c2nc(N[C@@H]3CCN(C(=O)OC)C[C@@H]3F)c(C)c(-c3c(C)noc3C)n2)c1 (stereo partly drawn) [Example 225-1a],< 100
17,CNC[C@@H](O)COc1ccc(Cl)c(-c2nc(-c3c(C)noc3C)c(Cl)c(N3Cc4nccnc4C3)n2)c1 [Example 225-3],< 100
18,CCOC(=O)N1CC[C@@H](Nc2nc(-c3cccc(OCC(O)CNC)c3)nc(-c3c(C)noc3C)c2C)[C@@H](F)C1 (stereo partly drawn) [Example 226-1a],< 100
19,CNC[C@@H](O)COc1ccc(F)c(-c2nc(-c3c(C)noc3C)c(C)c(N3Cc4nccnc4C3)n2)c1 [Example 226-3],< 100
20,CNCC(O)COc1cccc(-c2nc(N[C@@H]3CCN(C(=O)OC(C)(C)C)C[C@@H]3F)c(C)c(-c3c(C)noc3C)n2)c1 (stereo partly drawn) [Example 227-1a],< 100
21,CNC[C@@H](O)COc1ccc(F)c(-c2nc(-c3c(C)noc3C)c(C)c(N3CC4(CCOCC4)C3)n2)c1 [Example 227-3],< 100
22,CNCC(O)COc1cccc(-c2nc(N[C@@H]3CCN(C(=O)OC)C[C@H]3F)c(C)c(-c3c(C)noc3C)n2)c1 (stereo partly drawn) [Example 228-1a],< 100

row,SMILES,IC50 [nM]
1,CNC[C@@H](O)COc1ccc(Cl)c(-c2nc(NC[C@@H]3CCOC3)c(C)c(-c3c(C)noc3C)n2)c1 [Example 228-3],< 100
2,CCOC(=O)N1CC[C@@H](Nc2nc(-c3cccc(OCC(O)CNC)c3)nc(-c3c(C)noc3C)c2C)[C@H](F)C1 (stereo partly drawn) [Example 229-1a],< 100
3,CNC[C@@H](O)COc1ccc(Cl)c(-c2nc(-c3c(C)noc3C)c(Cl)c(N3CC4(CCOCC4)C3)n2)c1 [Example 229-3],< 100
4,CCS(=O)(=O)N1CCOC[C@@H]1CNc1nc(-c2cccc(OCC(O)CNC)c2)nc(-c2c(C)noc2C)c1C (stereo partly drawn) [Example 230-1a],< 100
5,CNC[C@@H](O)COc1ccc(Cl)c(-c2nc(NC3CC(C)C3)c(C)c(-c3c(C)noc3C)n2)c1 (stereo partly drawn) [Example 230-3],< 100
6,CNCC(O)COc1cccc(-c2nc(N[C@H]3C[C@H](C(C)(C)O)C3)c(C)c(-c3c(C)noc3C)n2)c1 (stereo partly drawn) [Example 231-1a],< 100
7,CNC[C@@H](O)COc1ccc(Cl)c(-c2nc(-c3c(C)noc3C)c(C)c(N3Cc4cn[nH]c4C3)n2)c1 [Example 231-3],< 100
8,CNCC(O)COc1cccc(-c2nc(N[C@H]3C[C@@H](C(C)(C)O)C3)c(C)c(-c3c(C)noc3C)n2)c1 (stereo partly drawn) [Example 232-1a],< 100
9,CNC[C@@H](O)COc1ccc(Cl)c(-c2nc(-c3c(C)noc3C)c(C)c(N3Cc4cc(OC)cnc4C3)n2)c1 [Example 232-3],< 100
10,CNCC(O)COc1cccc(-c2nc(Nc3cc(C)on3)c(C)c(-c3c(C)noc3C)n2)c1 (stereo not drawn) [Example 233-1a],< 100
11,CNC[C@@H](O)COc1ccc(Cl)c(-c2nc(NC[C@H]3CCOC3)c(C)c(-c3c(C)noc3C)n2)c1 [Example 233-3],< 100
12,CNCC(O)COc1cccc(-c2nc(N[C@H]3CC[C@H](OC)C3)c(C)c(-c3c(C)noc3C)n2)c1 (stereo partly drawn) [Example 234-1a],< 100
13,CNC[C@@H](O)COc1ccc(Cl)c(-c2nc(-c3c(C)noc3C)c(C)c(N3CCC4(CC4)C3)n2)c1 [Example 234-3],< 100
14,CNCC(O)COc1cccc(-c2nc(-c3c(C)noc3C)c(C)c(N3CCN(Cc4ccccc4)C(C(F)F)C3)n2)c1 (stereo not drawn) [Example 235-1a],< 100
15,CNC[C@@H](O)COc1ccc(Cl)c(-c2nc(-c3c(C)noc3C)c(C)c(N3CC4CC4C3)n2)c1 (stereo partly drawn) [Example 235-3],< 100
16,CNCC(O)COc1cccc(-c2nc(NC3CCOCC3)c(C)c(-c3c(C)noc3C3CC3)n2)c1 (stereo not drawn) [Example 236-1a],< 100
17,CNC[C@@H](O)COc1ccc(Cl)c(-c2nc(-c3c(C)noc3C)c(C)c(N3Cc4c(C)nn(C)c4C3)n2)c1 [Example 236-3],< 100
18,CNCC(O)COc1cccc(-c2nc(NC3CN(CC(F)F)C3)c(C)c(-c3c(C)noc3C)n2)c1 (stereo not drawn) [Example 237-1a],< 100
19,CCOC(=O)N1CC(Nc2nc(-c3cccc(OCC(O)CNC)c3)nc(-c3c(C)noc3C)c2C)C1 (stereo not drawn) [Example 238-1a],< 100
20,CNC[C@@H](O)COc1ccc(Cl)c(-c2nc(-c3c(C)noc3C)c(C)c(N3CCC3)n2)c1 [Example 238-3],< 100
21,CNCC(O)COc1cccc(-c2nc(NC3CCOC(C)C3)c(C)c(-c3c(C)noc3C)n2)c1 (stereo not drawn) [Example 239-1a],< 100
22,CNC[C@@H](O)COc1ccc(Cl)c(-c2nc(-c3cnn(C)c3)c(C)c(-c3c(C)noc3C)n2)c1 [Example 239-3],< 100
